# Results reported in US7053077B1, “Use of biogenic estrogen sulfamates for hormone replacement therapy” (Schering AG, priority 1998, dated 2006).
# Key:
# [1] = test system: liver; conditions: relative to anti-gonadotropic properties; cited from earlier work
# [2] = test system: bone; conditions: postmenopausal women, very high oral dosages; cited from earlier work
# [3] = test system: bone; conditions: uniform active ingredient levels maintained in the blood; cited from earlier work
# [4] = women; cited from earlier work
# [5] = test system: ovariectomized rats; test: Oral estrogenic action in ovariectomized rats; format: in vivo
# Procedure: (§1) These release-processes were ended after 24 hours.
# [6] = test system: endometrium; test: Growth effect on the endometrium after daily low-dose treatment; format: in vivo, postmenopausal women; conditions: daily 0.1 mg, at the end of treatment
# [7] = Plasma estrogen levels after one-time oral administration in postmenopausal women; format: in vivo
# Excerpt: A “pool” of estrone sulfate is produced in the blood by EV. From the latter is released estrone by hydrolysis, a small proportion of which is in turn metabolized into estradiol. […] Estrone sulfate is in this case only the main metabolite of the estrogens that are produced from the sulfamate.
# [8] = Blood levels of estradiol and estrone in ovariectomized rats after oral treatment; format: in vivo
# Procedure: as §1
# [9] = Procedure: In the examples below, the determination of the plasma levels of the estrogens with validated methods that are known and acknowledged in the art was performed.
compound,measurement,setting,value
"C#C[C@]1(O)CC[C@H]2[C@@H]3CCc4cc(O)ccc4[C@H]3CC[C@@]21C [EE, ethinylestradiol]",estrogenic activity in the liver compared with orally administered natural estrogens,[1],4–18 times
C[C@]12CC[C@@H]3c4ccc(O)cc4CC[C@H]3[C@@H]1C[C@@H](O)[C@@H]2O [estriol],osteoprotective effect,[2],not osteoporectively effective
same,action in the bone after ovariectomy,[3],protective action in the bone
same,half-life,[4],1.5 to 5.3 h
estradiol sulfamate,oral estrogenic action,[5]; oral treatment,strong oral estrogenic action
same,extension of the estrogen actions,[5]; very high dosages,did not result in an extension of the estrogen actions
same,growth effect on the endometrium relative to the starting value,[6],considerable growth effect on the endometrium
same,estrone levels 24 hours after administration,"[7]; one-time oral 2 mg, 24 hours, postmenopausal women",higher after estradiol sulfamate than after EV
same,estrone sulfate levels 48 hours after administration,"[7]; one-time oral 2 mg, 48 hours, postmenopausal women",higher after estradiol sulfamate than after EV
same,estradiol blood levels one week after treatment,"[7]; one-time oral 2 mg, one week, postmenopausal women",clearly exceed the starting values
same,increase of estrone sulfate levels in plasma,"[7]; one-time oral 2 mg, postmenopausal women (FIG. 1)",increase
same,increase of estrone levels in plasma,"[7]; one-time oral 2 mg, postmenopausal women (FIG. 2)",persists for a long time
same,level of estrogen sulfate in comparison to EV,[7]; oral use (FIG. 4),very low in comparison to EV
same,release (surface under the curve) of estrone,"[7]; oral use, compared with EV (FIG. 4)",altogether higher release
same,average estrone sulfate levels,"[7]; three postmenopausal women, one-time 2 mg, over 600 hours (FIG. 5)",clear increase compared to the starting values
same,estrone sulfate increase compared with transdermal therapy,"[7]; women, oral",behave comparably
same,induced estrone sulfate levels relative to estradiol valerate,"[7]; women, oral, at comparable estrone and estradiol levels in the blood",about 10 times lower
same,blood levels of estradiol and estrone in comparison to estradiol in an equimolar dose,[8],higher and prolonged blood levels of estradiol and estrone
same,"end of release processes (estradiol, estrone)",[8],≤ 24 h
same,persistence of estrone sulfate increase in plasma after the last administration,"[9]; daily 0.1 mg, after last of 14 administrations",had not yet disappeared even after six days
same,estrone levels in the plasma,[9]; in vivo,Relevant elevated estrone levels
same,estrone sulfate level at the end of the treatment,[9]; in vivo,clear increases
same,estrone sulfate level in the first 24 hours after beginning of treatment,[9]; in vivo,no clear increases
